Reference: ChEMBL document CHEMBL1201862, “PubChem BioAssay data set” (2004)
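Cells were grown in 96-well plates and exposed to each compound for 48 hours at five concentrations; endpoints were interpolated linearly between bracketing concentrations, or set to the highest concentration if not reached. GI50: concentration for 50% inhibition of growth.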 Activity calls are given as the source filed them. No stated cut-off is given here; in the data, active = GI50 up to about 1.1 µM and inactive = higher.

How the values were obtained:
Test in all cases: NCI-60 cell line screen, 48 h
786-0 = test system: 786-0
A549 = test system: A549
COLO 205 = test system: COLO 205
EKVX = test system: EKVX
HCC 2998 = test system: HCC 2998
HOP-62 = test system: HOP-62
HT-29 = test system: HT-29
K562 = test system: K562
LOX IMVI = test system: LOX IMVI
MOLT-4 = test system: MOLT-4
NCI-H460 = test system: NCI-H460
NCI-H522 = test system: NCI-H522
OVCAR-3 = test system: OVCAR-3
OVCAR-8 = test system: OVCAR-8
RPMI-8226 = test system: RPMI-8226
SK-MEL-28 = test system: SK-MEL-28
TK-10 = test system: TK-10
RXF 393 = test system: RXF 393

Measured: GI50

COc1ccc(NC(=O)/C(=C/c2ccccc2)C(C)=O)cc1
inactive: 786-0 14.8 µM | A549 22.2 µM | COLO 205 19.1 µM | EKVX 22.5 µM | HCC 2998 18.9 µM | HOP-62 18 µM | HT-29 13.3 µM | K562 12.5 µM | LOX IMVI 10.7 µM | MOLT-4 11.4 µM | NCI-H460 21.6 µM | NCI-H522 1.73 µM | OVCAR-3 16.3 µM | OVCAR-8 18.1 µM | RPMI-8226 5.24 µM | SK-MEL-28 12.9 µM | TK-10 20.3 µM

NNC(=O)N/N=C(/CC1(O)C(=O)Nc2ccc(Br)cc21)c1ccccc1 (stereo not drawn)
inactive: 786-0 57.3 µM | A549 50 µM | EKVX 22.7 µM | HT-29 30.6 µM | K562 30.5 µM | LOX IMVI 18.1 µM | MOLT-4 16.7 µM | NCI-H522 18.8 µM | OVCAR-3 41.8 µM | RPMI-8226 48.4 µM | SK-MEL-28 28.2 µM | TK-10 55.6 µM

COc1cc2cccc(/N=C\c3cccc(OC)c3OC(C)C)c2cc1OC
inactive: 786-0 18.5 µM | A549 29.7 µM | COLO 205 36.2 µM | EKVX 52 µM | HCC 2998 35.9 µM | HOP-62 26.5 µM | HT-29 23.2 µM | K562 15.6 µM | MOLT-4 19.1 µM | NCI-H460 33.9 µM | NCI-H522 17.9 µM | OVCAR-3 19.4 µM | OVCAR-8 21.5 µM | RPMI-8226 13.2 µM | SK-MEL-28 24.3 µM | TK-10 25.6 µM

CC(C)=CC(=O)CC(=O)C(=O)Nc1ccc(C)c(C)c1
inactive: 786-0 > 100 µM | A549 > 100 µM | EKVX > 100 µM | HT-29 > 100 µM | K562 > 100 µM | LOX IMVI > 100 µM | MOLT-4 > 100 µM | NCI-H522 > 100 µM | OVCAR-3 > 100 µM | RPMI-8226 > 100 µM | SK-MEL-28 > 100 µM | TK-10 > 100 µM

C/C=N\N1C(=O)c2ccccc2C1=O
inactive: 786-0 > 100 µM | A549 > 100 µM | EKVX > 100 µM | HCC 2998 > 100 µM | HOP-62 > 100 µM | HT-29 > 100 µM | K562 > 100 µM | LOX IMVI > 100 µM | MOLT-4 > 100 µM | NCI-H460 > 100 µM | OVCAR-3 > 100 µM | OVCAR-8 > 100 µM | RPMI-8226 > 100 µM | RXF 393 > 100 µM | SK-MEL-28 > 100 µM | TK-10 > 100 µM
